For assay [1], the system named is Aβ. Put plainly: Aβ staining of neurosphere culture. The format is cell-based, mouse. The conditions noted are these: neurospheres from NL-G-F(−/−) mice, fourth day of culture, perampanel group.
Another assay concerns Aβ42/Aβ40. Kind of assay: Aβ42/Aβ40 ratio of neurosphere culture supernatant by EIA. The conditions noted are these: neurospheres from NL-G-F(−/−) mouse embryonic hippocampus, perampanel 50 μM, day 2 and day 4 of culture. The class given is cell-based. The text has this: Biomarkers of Alzheimer's dementia include the Aβ42/Aβ40 ratio of cerebrospinal fluid (CSF) and plasma levels, phosphorylated tau (P-tau) in threonines 181 and 217, and neurofilament lite (NfL) (Curr Opin Neurol 2021 1 266-274). The Aβ42/Aβ40 ratio is considered to be able to predict Aβ accumulation in PET (Doecke J D et al., Neurology 2020). Hippocampus on 17 to 19 days of NL-G-F(−/−) mouse embryonic life was taken out and cultured by a Neurosphere method by Brewer G J et al. (Nat Protoc 2007 2, 1490-1498), and a supernatant was measured by an EIA method using this culture system. The change in the Aβ42/Aβ40 ratio by the perampanel (50 μM/methyl cellulose 4 μL) was analyzed. In 4 μL of a 0.5 w/v % aqueous solution of methyl cellulose 400, 5×10^4 spheres smaller than 50 μm in diameter were cultured in 50 ml Falcon Flask coated with poly-D-lysine/laminin, and Aβ42 and Aβ40 of the supernatant were measured by EIA method on the second day (FIG. 29A) and the fourth day (FIG. 29B) of culture. The solvent was administered 12 hours after seeding.

The test system of assay [2] is dendritic arbors and spines of hippocampus. Kind of assay: Golgi staining of hippocampus. The format is in vivo, mouse. The following applies: HFD mice with PER. The text has this:
Coronal sections of mouse brains from Bregma-0.94 mm to Bregma-4.04 mm (5 mm wide, including the entire hippocampus from dorsal to ventral, medial to lateral) were fixed with 4% paraformaldehyde for 2 days, and then stained with the Golgi Cox staining system (FD Rapid GolgiStain™ Kit, MD 21041, USA). The impregnated tissues were cut into 100 μm sections and counterstained with crystal violet, and the total number of 15 μm spines on the apical dendrites of CA1 and DG and the percentage of morphologic spines (thin, stubby, mushroom) were examined using an Axio Observer Z1 (Carl Zeiss, Germany). Another set of paraformaldehyde-fixed 5 mm wide coronal sections of the brain, including the entire hippocampus, were processed using the passive CLARITY technique (PACT) (62) and examined through Lightsheet Z.1 (Carl Zeiss, Germany) using a 10× clear objective lens, and 3D images of Thy1-YFPH transgenic mice (the Jackson Laboratory, stock number: 003709, strain name: B6. Cg-Tg. (Thy1-YFP) 16Jrs/J) (63, 64), HFD-fed mice, and whole hippocampus of the HFD-fed mice with PER treatment. were acquired respectively. Maximum intensity projection images were acquired along the Z dimension, time dimension, and channel dimension to create an output image with the pixel containing the maximum value for all images in the stack at a particular pixel position. With the Z-stack function, a series of XY images at different focus positions can be acquired to create Z-stack. In this manner, a 3D dataset of 400 μm×400 μm was obtained from the specimens, dorsal to lateral and medial to lateral for each of CA1, CA3, and DG.

Assay [3] has as its system Aβ. Kind of assay: Aβ accumulation in hippocampus and cerebral cortex of NL-G-F(−/−) mice. The conditions noted are these: perampanel 5 mg/kg from 6 to 15 weeks of age. The format is in vivo, mouse. The text has this:
The effect of perampanel administration on Aβ accumulation in the hippocampal dentate gyrus (DG) CA1 and the cerebral cortex (Cx) in the Alzheimer's dementia model mouse (NL-G-F(−/−)) is shown. The X axis indicates the intensity of fluorescence, and the Y axis indicates the fluorescence count.

A further assay has as its system HFD-fed mice. Kind of assay: Morris water maze pattern completion test. The following applies: PER administration. The class given is in vivo, mouse. Here is the method: The Morris water maze task was performed as previously described using mice with CD, HFD, and HFD with PER treatment (49). All experiments were performed at approximately the same time of day. Mice were transported from the colony to the holding area and kept undisturbed for 30 minutes prior to the experiment. The tests were performed in a rectangular dimly lit room with a circular pool (Muromachi Kikai Co., Ltd., Tokyo, Japan) of 120 cm diameter filled with opaque water with skim milk (Morinaga, Japan) kept at room temperature. Four large objects illuminated by floor lamps were hung on the black curtains surrounding the pool as cues outside the maze. A hidden circular platform with a diameter of 10 cm was placed 1 cm below the surface of the water and the mice were trained to find the platform 4 times per day at intervals of approximately 60 minutes for 12 days. During training, the mice were released from 4 start points (N, S, E, and W) assigned in a pseudo-random manner and allowed to swim for 300 seconds.
On the thirteenth day, a probe trial was performed under the condition of full-cue (P1). […] Training and probe trial data were collected and analyzed using CompACT VAS/DV video tracking system software. The escape latency to the hidden platform (goal reaching time) was measured.

The next assay relates to NL(−/−) mice. Put plainly: Bicculine-induced epileptiform reactions in NL(−/−) mice. The following applies: perampanel administration. The format is in vivo, mouse. The text has this:
Epilepsy occurs more frequently in AD patients than in the control population (Pascal E 2012), and the incidence of epilepsy increases to 7 to 21% (Amatniek et al., 2006; Hauser et al., 1986; Mendez and Lim, 2003) in sporadic AD patients and 30% in early-onset familial AD (FAD) (Palop and Mucke, 2009; Larner and Doran, 2006). Early latent hippocampal hyperexcitability was detected in AD patients (Lam A D et al., Nat Med 2017). […] In particular, in NL-G-F(−/−) mice (15 to 17 weeks old), significant enhancement of epileptiform reactions in the CA1 and CA2 regions was confirmed by Bicculine (BIC) (refer to FIG. 32). […] In an animal model of AD in which amyloid β is accumulated, it has been reported that an epileptiform reaction is enhanced (Busche, 2008; 2012). Also in this experiment, epileptic induction by bicrine was enhanced in both NL(−/−) mice and NL-G-F(−/−) (15 to 17 weeks old (W)) as compared with control mice.

Take `N#Cc1ccccc1-c1cc(-c2ccccn2)cn(-c2ccccc2)c1=O` [PER, 3-(2-cyanophenyl)-5-(2-pyridyl)-1-phenyl-1,2-dihydropyridine-2-one]: in the assay on Aβ [1], the “Aβ staining of culture” value was “decrease in Aβ”. In the assay with Aβ42/Aβ40, the “Aβ42/Aβ40 ratio of the culture supernatant” value is “significantly increased”. In assay [2], the “Golgi staining positive cells in DG” value is listed as “restored”, the “integrity of dendritic arbors in CA1 (Golgi staining)” value is reported as “restored” and the “spine maturation in DG” value is “immature spines became mature”. Further, the “Aβ accumulation in DG, CA1 and cerebral cortex” value in the assay on Aβ [3] is “decrease in Aβ accumulation”. The pattern completion ability result in the assay on HFD-fed mice was “restored”. In the assay with NL(−/−) mice, the “epileptiform reactions induced by bicculine” value is “almost completely abolished”.

The values are drawn from patent US20240398775A1, “PHARMACEUTICAL COMPOSITION FOR USE IN TREATING COGNITIVE DECLINE OR FOR USE IN TREATING OVERWEIGHT OR OBESITY” (University of the Ryukyus, priority 2021, published 2024).
